Source: patent US4232121A, “Process for selecting methine dyes which inhibit cell growth” (Eastman Kodak Company, priority 1978, dated 1980)
Values joined by “and” are separate entries in the source; they are usually repeats but may differ in a detail not shown here. Equal entries are not always repeated. Where two headings read alike, the source gives them in different places.

What was measured:
[1] = Reduction potential (ER) of the dye
Experimental: (§3) If a published reduction potential is not available, suitable techniques for measuring reduction potential are available and can be used. […] This technique involves measurement at 20° C., of an approximately 10^-4 molar solution of the dye in an electrolyte, such as methanol which is 0.05 molar in lithium chloride, using a dropping mercury electrode. The potential values are reported by reference to a silver-silver chloride electrode in a saturated solution of potassium chloride at 20° C.

Sea Urchin Eggs = assay: Inhibition of cell division in fertilized sea urchin eggs; format: cell-based; details: arbitrary scale 0 to 5, 5 most active; dye 10^-5 to 10^-6 molar, 60 minutes after fertilization
Experimental: To suspensions in filtered sea water of fertilized sea urchin eggs there was added, three minutes after fertilization, methanolic solutions of the dyes in an amount sufficient to yield a final concentration of dye of between 10^-5 and 10^-6 molar. The final concentration of methanol was, at a maximum 1×10^-4 molar. The eggs were visually observed at 60 minutes after fertilization to determine if cell division and the formation of mitotic apparatus had been inhibited. A rating was assigned based on the concentration of dye required to inhibit cell division and synthesis of DNA.

[2] = system: Bacillus pumilus strain K-1; assay: Inhibition of bacterial growth, filter paper on inoculated agar plates; format: cell-based
[3] = Solubility / stability comments on the dyes; format: physicochemical; details: Table IX
[4] = not told
Experimental: as §3

[5] = system: the bacteria (various gram-negative and gram-positive); assay: Binding of dyes to the bacteria of Example 9; details: determined as in Example 8
Experimental: In addition, binding of dyes 7, 17 and 24 to the bacteria was determined as in Example 8.

Alcaligenes faecalis = assay: Inhibition of bacterial growth, filter paper technique; format: cell-based; details: Table VIII; 10^-3 molar; Gram -; 37° C./48 hrs
Experimental: (§1) Schleider and Schuell #740-E filter paper (12.7 mm diameter) was dipped in the dye solution, touched to the side of the beaker to removed excess dye, and placed in the center of the inoculated agar plates (prepared in (B) above). The plates were then incubated at 26° C. for […]. The plates were then examined to determine if bacterial growth had been affected by the dye-containing filter paper. With certain dyes bacterial growth was inhibited in a circular area around the filter paper. With other dyes no such area of inhibition was observed.
(§2) Cultures of various gram-negative and gram-positive bacteria were prepared in nutrient and Tryptic Soy Agar and plates were poured as described in Example 1. Methanolic solutions of cyanine dyes were prepared at 10^-3 molar and applied to the plates using the filter paper technique described in Example 1. Control plates were prepared in which the filter paper contained methanol or a 0.2 molar aqueous solution of phenol. The plates were then incubated at 26° C. or 37° C. for forty-eight hours.

Bacillus subtilis = assay: as above; format: cell-based; details: Table VIII, 10^-3 molar, Gram +, 26° C./48 hrs, read-out: Area of Inhibition (diameter)
Experimental: as §1, §2

Enterobacter aerogenes = assay: as above; format: cell-based; details: Table VIII; 10^-3 molar; Gram -; 37° C./48 hrs
Experimental: as §1, §2

Micrococus luteus = assay: as above; format: cell-based; details: Table VIII; 10^-3 molar; Gram +; 26° C./48 hrs; read-out: Area of Inhibition (diameter)
Experimental: as §1, §2

Bacillus cereus = assay: as above; format: cell-based; details: Bacillus cereus; Table VIII; 10^-3 molar; Gram +; 26° C./48 hrs; read-out: Area of Inhibition (diameter)
Experimental: as §1, §2

Bacillus megaterium = assay: as above; format: cell-based; details: Priestia megaterium; Table VIII; 10^-3 molar; Gram +; Tryptic Soy; 37° C./48 hrs; read-out: Area of Inhibition (diameter)
Experimental: as §1, §2

Proteus vulgaris = assay: as above; format: cell-based; details: Table VIII; 10^-3 molar; Gram -; 37° C./48 hrs
Experimental: as §1, §2

[6] = system: Escherichia coli, Strain B; assay: as above; format: cell-based; details: Table VIII; 10^-3 molar; Gram -; 37° C./48 hrs
Experimental: as §1, §2

Micrococcus flavus = assay: as above; format: cell-based; details: Micrococcus flavus; Table VIII; 10^-3 molar; Gram +; 26° C./48 hrs; read-out: Area of Inhibition (diameter)
Experimental: as §1, §2

[7] = Oxidation potential (Eox) of the dye; format: physicochemical; details: Tables I, II, V, VI
[8] = Bacillus pumilus, K1, 48 h, Table VIII, 10^-3 molar, Nutrient, 37° C./48 hrs, read-out: Area of Inhibition (diameter)
[9] = Bacillus pumilus, K1, 72 h, Tables V and VI, 10^-3 molar, three days, read-out: Diameter of Inhibition
[10] = Bacillus pumilus, K1, Table II, 10^-4 molar, 26° C., forty-eight hours, read-out: Diameter of Inhibition
[11] = Bacillus pumilus, K1, Table IX, 10^-3 M, read-out: Diameter of Inhibition
[12] = Bacillus pumilus, K1, Table IX, 10^-4 M, read-out: Diameter of Inhibition

| Compound | Sea Urchin Eggs Activity (Sea Urchin Eggs) | ER [4] | reduction potential (ER) [4] [volts] | % Bound (Bacillus pumilus (K-1)) [%] | binding to the bacteria (in words) [5] | Area of Inhibition (diameter) (Alcaligenes faecalis) | zone of inhibition at 1000 µM (Bacillus subtilis) [mm] | Area of Inhibition (diameter) (Enterobacter aerogenes) | zone of inhibition at 1000 µM (Micrococus luteus) [mm] | zone of inhibition at 1000 µM (Bacillus cereus) [mm] | zone of inhibition at 1000 µM (Bacillus megaterium) [mm] | Area of Inhibition (diameter) (Proteus vulgaris) | Area of Inhibition (diameter) [6] | zone of inhibition at 1000 µM (Micrococcus flavus) [mm] | Activity Rating [2] | zone of inhibition at 1000 µM [2, 8] [mm] | zone of inhibition at 1000 µM [2, 9] [mm] | zone of inhibition at 100 µM [2, 10] [mm] | zone of inhibition at 1000 µM [2, 11] [mm] | zone of inhibition at 100 µM [2, 12] [mm] | other results |
| --- | --- | --- | --- | --- | --- | --- | --- | --- | --- | --- | --- | --- | --- | --- | --- | --- | --- | --- | --- | --- | --- |
| CCN1C(=CC=Cc2sc3cc([N+](=O)[O-])ccc3[n+]2CC)Sc2cc([N+](=O)[O-])ccc21 [Dye 29] | 0 |  |  |  |  |  |  |  |  |  |  |  |  |  |  |  |  |  |  |  | reduction potential (ER) ([1]; list of dyes, vs. silver-silver chloride electrode, 20° C.): -0.58 volts; % Bound (Bacillus pumilus (K-1); Table IX): 67.9%; Diameter of Inhibition ([2]; Table IX, 10^-3 M): None; Activity Rating ([2]; Table IX, 10^-3 M, relative to phenol concentration giving equal diameter, Dye 7 = 100 (dye 20 relative to dye 17)): 0 |
| CCN1C(=CC=Cc2sc3ccc4ccccc4c3[n+]2CC)Sc2ccc3ccccc3c21 [Dye 12] | 0 | -1.12 | -1.12 | 93.1 |  |  |  |  |  |  |  |  |  |  |  |  |  |  |  |  | Comment: solubility [3]: Insoluble |
| CCN1C(=CC=Cc2oc3ccccc3[n+]2CC)Oc2ccccc21 [Dye 7] | +4 | -1.26 | -1.26 | 31.7 | found to bind | No | 18 | No | 16 | 14 | 21 | No | No | 19 | 100 | 24 | 34 | 25.5 | 34 | 25.5 | zone of inhibition at 100 µM ([2]; Bacillus pumilus, K1, Table I, 10^-4 molar, 26° C., fifty hours, dark, read-out: Diameter of Inhibition): 22.5 mm; zone of inhibition at 100 µM ([2]; Bacillus pumilus, K1, Table III, 1.0 × 10^-4 M, read-out: Diameter of Inhibition): 26 mm; zone of inhibition at 200 µM ([2]; Bacillus pumilus, K1, Table III, 2.0 × 10^-4 M, read-out: Diameter of Inhibition): 29 mm; zone of inhibition at 25 µM ([2]; Bacillus pumilus, K1, Table III, 2.5 × 10^-5 M, read-out: Diameter of Inhibition): 14.5 mm; zone of inhibition at 50 µM ([2]; Bacillus pumilus, K1, Table III, 5.0 × 10^-5 M, read-out: Diameter of Inhibition): 20 mm; degree of inhibition compared with phenol (in words) ([2]; dye 7 at 1×10^-4 molar): same degree of inhibition as phenol at 2.13×10^-1 molar; times more active as an inhibitor than phenol ([2]; dye 7 at 1×10^-4 molar vs phenol at 2.13×10^-1 molar): ~2000 times |
| CCN1C(=CC=Cc2sc3ccccc3[n+]2CC)Sc2ccccc21 [Dye 17] | +4 | -1.00 | -1.00 | 73.1 | found to bind | No | 15 | No | 14 | 13 | 14 | No | No | 15 | 18 and 31 | 17 | 19 | 16.5 | 19 | 16.5 | effect upon diameter of inhibition as a result of changing the anion ([2]; 10^-3 molar, three days): no effect upon diameter of inhibition |
| CCN1C(=CC=Cc2sc3cc([N+](=O)[O-])ccc3[n+]2CC)Sc2cc([N+](=O)[O-])ccc21 [17,6,6'-dinitro] |  |  |  |  |  |  |  |  |  |  |  |  |  |  |  |  |  |  |  |  | ER ([1]; Tables I, II, V, VI, VII, IX): -.58; Diameter of Inhibition ([2]; Tables V and VI, 10^-3 molar, three days): None; Eox [7]: +.96 |
| CCN1C(=CC=Cc2n(CC)c3nc4ccccc4nc3[n+]2CC)N(CC)c2nc3ccccc3nc21 [Dye 24] | 0 |  | -0.79 | 32.8 | found to bind | No | 13 | Slight | 14 | 13.5 | 14 | No | No | 13 |  | 13 |  |  | 13 |  | Diameter of Inhibition ([2]; Table II, 10^-4 molar, 26° C., forty-eight hours): None; Diameter of Inhibition ([2]; Table IX, 10^-4 M): None; Eox [7]: +1.00 |
